Results on 61 compounds are retold here after patent US10730850B2, “Pyridinylmethyl carbamimidoylcarbamate derivatives and their use as AOC3 inhibitors” (Boehringer Ingelheim International GmbH, priority 2016, dated 2020).

Sequence of AOC3 (Q16853 whole entry): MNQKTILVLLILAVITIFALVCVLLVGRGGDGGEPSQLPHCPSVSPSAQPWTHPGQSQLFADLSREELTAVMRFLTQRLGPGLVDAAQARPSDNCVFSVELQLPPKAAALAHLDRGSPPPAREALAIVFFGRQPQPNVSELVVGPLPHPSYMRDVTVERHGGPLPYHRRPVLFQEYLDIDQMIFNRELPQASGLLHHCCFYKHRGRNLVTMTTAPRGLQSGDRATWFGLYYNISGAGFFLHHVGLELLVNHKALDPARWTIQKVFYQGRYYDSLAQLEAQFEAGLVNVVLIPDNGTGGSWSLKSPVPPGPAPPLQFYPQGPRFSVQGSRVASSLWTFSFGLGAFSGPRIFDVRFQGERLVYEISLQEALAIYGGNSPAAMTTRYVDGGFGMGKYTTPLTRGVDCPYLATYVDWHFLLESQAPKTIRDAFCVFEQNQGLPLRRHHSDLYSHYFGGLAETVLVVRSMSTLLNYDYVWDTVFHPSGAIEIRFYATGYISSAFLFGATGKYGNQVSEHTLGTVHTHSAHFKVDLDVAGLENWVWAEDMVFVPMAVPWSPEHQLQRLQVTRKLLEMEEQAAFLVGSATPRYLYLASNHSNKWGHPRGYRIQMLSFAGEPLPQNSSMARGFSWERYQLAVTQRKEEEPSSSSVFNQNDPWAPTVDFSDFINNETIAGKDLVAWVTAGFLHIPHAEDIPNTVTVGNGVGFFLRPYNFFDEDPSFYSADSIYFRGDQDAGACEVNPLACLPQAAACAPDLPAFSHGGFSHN

In the assay the target is AOC3 (Homo sapiens (Human), UniProt Q16853). The assay can be described thus: MAO-Glo AOC3 assay (recombinant CHO cells overexpressing AOC3). Type of assay: biochemical. As to conditions: Table 1, read-out: AOC3 IC50. From the text:
The MAO-Glo™ Assay (commercial available from PROMEGA, # V1402) provides a sensitive method for the measurement of monoamine oxidase (MAO) activity (Valley, M. P. et al., 2006, Anal. Biochem. 359: 238-246) from a variety of tissues, biofluids or recombinant expressed or purified enzymes. As substrate a derivate of the beetle luciferin ((4S)-4,5-dihydro-2-(6-hydroxybenzothiazolyl)-4-thiazole-carboxylic acid) is used, which is oxidized at a primary amine moiety. After a spontaneous elimination and a catalyzed esterase reaction, the turnover of the luciferine by the luciferase is recorded as a signal of AOC3 activity.
An aliquot of 3 μL of the compound dilution is added to a 384 well plate (Optiplate, PS, flat bottom, white, PERKIN ELMER, #6007290) with a final DMSO concentration of 6.6%. Recombinant CHO cells, overexpressing the human (1500 cells/well), mouse (1000 cells/well) or rat (500 cells/well) AOC3 enzyme are diluted in reaction buffer and added in a volume of 15 μL to the wells. After incubation for 20 minutes at 37° C., 2 μL of MAO substrate (dissolved in DMSO at 16 mM, adjusted to assay concentration in reaction buffer to a final assay concentration of 20 μM) is added and further incubated for 60 minutes at 37° C. The turnover of the substrate is determined by the addition of 20 μL of the detection-mix which was generated by the addition of reconstitution buffer with esterase (PROMEGA, # V1402) to the luciferine detection reagent (PROMEGA, # V1402). After an incubation period of 20 minutes, the luminescent signal is measured with Envision 2104 Multilabel Reader (PERKIN ELMER).
In the following table the activity expressed as IC50 (nM) of compounds according to the invention is presented wherein the IC50 values are determined in the MAO-Glo™ AOC3 assay as described hereinbefore. The term “Example” refers to the example numbers according to the following experimental section.
Take `Cc1ccccc1N1CCN(c2nccc(COC(=O)NC(=N)N)c2F)CC1` [Example 1.034]: the IC50 turned out to be 0.058 µM.
For `N=C(N)NC(=O)OCc1ccnc(N2CCN(c3ccccc3F)CC2)c1F` [Example 1.043] the value was 0.013 µM.
Consider `N=C(N)NC(=O)OCc1ccnc(N2C3CCC2CC(c2ccccc2)C3)c1F` (stereo not shown) [Example 1.052], for which the IC50 was determined as 0.084 µM.
Then `N=C(N)NC(=O)OCc1ccnc(N2CC=C(c3ncc(F)cn3)CC2)c1F` [Example 1.042], with 0.028 µM.
Then `N#Cc1cnc(N2CCN(c3nccc(COC(=O)NC(=N)N)c3F)CC2)nc1` [Example 1.059], with 0.016 µM; and `N=C(N)NC(=O)OCc1ccnc(N2CC3CC2CN3c2cccc(F)c2)c1F` (stereo not shown) [Example 1.066], with 0.278 µM; and `N=C(N)NC(=O)OCc1ccnc(N2CC=C(c3ccc(Cl)cc3)CC2)c1F` [Example 1.069], with 0.015 µM.
Then `CN(C)Cc1ccc(C2CCN(c3nccc(COC(=O)NC(=N)N)c3F)CC2)cc1` [Example 1.090], with 0.01 µM; and `CCc1ccc(N2CCN(c3nccc(COC(=O)NC(=N)N)c3F)CC2)cc1` [Example 1.062], with 0.011 µM; and `N=C(N)NC(=O)OCc1ccnc(N2CCC(N3CC[S+]([O-])CC3)CC2)c1F` [Example 1.080], with 0.086 µM.
On to `Cc1ccc(N2CCN(c3nccc(COC(=O)NC(=N)N)c3F)CC2)cc1C` [Example 1.063], for which the IC50 is 0.013 µM.
Then `N=C(N)NC(=O)OCc1ccnc(N2CCC(c3ccc(C(=O)O)cc3)CC2)c1F` [Example 1.082], with 0.002 µM; and `COC(=O)c1ccc(N2CCN(c3nccc(COC(=O)NC(=N)N)c3F)CC2)nn1` [Example 1.094], with 0.014 µM.
For the compound `N=C(N)NC(=O)OCc1ccnc(N2CC=C(c3ccccc3)CC2)c1F` [Example 1.005], the IC50 is 0.017 µM.
For `N=C(N)NC(=O)OCc1ccnc(N2CCN(c3ccc(C(F)(F)F)cc3)CC2)c1F` [Example 1.097] the value was 0.011 µM; for `N=C(N)NC(=O)OCc1ccnc(N2CCC(C3CCCCC3)CC2)c1F` [Example 1.020], 0.035 µM.
For `N=C(N)NC(=O)OCc1ccnc(N2CCC(N3CCOC3=O)CC2)c1F` [Example 1.026] the value was 0.111 µM; for `N=C(N)NC(=O)OCc1ccnc(N2CCN(c3ccccn3)CC2)c1F` [Example 1.012], 0.062 µM; for `Cc1cnc(C2=CCN(c3nccc(COC(=O)NC(=N)N)c3F)CC2)o1` [Example 1.015], 0.017 µM.
For `N=C(N)NC(=O)OCc1ccnc(N2CCN(c3nccs3)CC2)c1F` [Example 1.024] the value was 0.018 µM; for `Cc1ccc(N2CCN(c3nccc(COC(=O)NC(=N)N)c3F)CC2)cc1` [Example 1.032], 0.011 µM.
As to `N=C(N)NC(=O)OCc1ccnc(N2CC=C(c3ncco3)CC2)c1F` [Example 1.004], the IC50 was found to be 0.038 µM.
On to `Cc1cccc(C2CCN(c3nccc(COC(=O)NC(=N)N)c3F)CC2)c1` [Example 1.028], for which the IC50 was determined as 0.01 µM.
Take `Cc1cnc(C2CCN(c3nccc(COC(=O)NC(=N)N)c3F)CC2)o1` [Example 1.019]: the IC50 is 0.084 µM.
For `Cc1ccc(N2CCN(c3nccc(COC(=O)NC(=N)N)c3F)CC2)nc1` [Example 1.038] the value was 0.014 µM; for `Cc1cccc(C)c1N1CCN(c2nccc(COC(=O)NC(=N)N)c2F)CC1` [Example 1.060], 0.217 µM.
Then `N=C(N)NC(=O)OCc1ccnc(N2CCC(c3nccs3)CC2)c1F` [Example 1.022], with 0.049 µM.
Turning to `N=C(N)NC(=O)OCc1ccnc(N2CCC3(C=Cc4ccccc43)CC2)c1F` [Example 1.049], the 50% inhibitory concentration (IC50) was determined as 0.022 µM.
For `N=C(N)NC(=O)OCc1ccnc(N2CCC(N3CCC(C(N)=O)CC3)CC2)c1F` [Example 1.088] the value was 0.048 µM; for `CCOc1ccc(C2CCN(c3nccc(COC(=O)NC(=N)N)c3F)CC2)cn1` [Example 1.087], 0.012 µM.
For `CC1CN(c2nccc(COC(=O)NC(=N)N)c2F)CCN1c1ccccc1` (stereo not shown) [Example 1.035] the value was 0.014 µM; for `COc1cnc(N2CCN(c3nccc(COC(=O)NC(=N)N)c3F)CC2)nc1` [Example 1.073], 0.01 µM; for `N=C(N)NC(=O)OCc1ccnc(N2CCN(c3ncccn3)CC2)c1F` [Example 1.014], 0.041 µM.
Regarding `N=C(N)NC(=O)OCc1ccnc(N2CCN(c3ncc(C(F)(F)F)cn3)CC2)c1F` [Example 1.098], the IC50 was found to be 0.015 µM.
In the case of `N=C(N)NC(=O)OCc1ccnc(N2CCC(c3ccc(C(F)(F)F)cc3)CC2)c1F` [Example 1.096], the IC50 stood at 0.012 µM.
For `COC(=O)c1cnc(N2CCN(c3nccc(COC(=O)NC(=N)N)c3F)CC2)nc1` [Example 1.093] the value was 0.017 µM; for `N=C(N)NC(=O)OCc1ccnc(N2CCN(c3cccnn3)CC2)c1F` [Example 1.013], 0.022 µM.
For `N=C(N)NC(=O)OCc1ccnc(N2CCC(c3ccccc3)CC2)c1F` [Example 1.008] the value was 0.015 µM.
For the compound `N=C(N)NC(=O)OCc1ccnc(N2CCN(c3ncncn3)CC2)c1F` [Example 1.018], the IC50 came to 0.017 µM.
As for `N#Cc1ccc(C2CN(c3cccc(COC(=O)NC(=N)N)n3)C2)cc1` [Example 1.003], the IC50 stood at 0.016 µM.
Consider `N=C(N)NC(=O)OCc1ccnc(N2CCN(c3ccccc3)CC2)c1F` [Example 1.009], for which the IC50 was 0.041 µM.
Regarding `N=C(N)NC(=O)OCc1ccnc(N2CC=C(c3ccccn3)CC2)c1F` [Example 1.006], the IC50 was determined as 0.018 µM.
Then `N#CC1CCN(C2CCN(c3nccc(COC(=O)NC(=N)N)c3F)CC2)CC1` [Example 1.070], with 0.077 µM.
Then `N=C(N)NC(=O)OCc1ccnc(N2CCN(c3ccccc3Cl)CC2)c1F` [Example 1.076], with 0.039 µM.
Then `COc1cnc(C2CCN(c3nccc(COC(=O)NC(=N)N)c3F)CC2)nc1` [Example 1.071], with 0.008 µM; and `N=C(N)NC(=O)OCc1ccnc(N2CCC(N3CCCCC3=O)CC2)c1F` [Example 1.046], with 0.128 µM.
For the compound `N=C(N)NC(=O)OCc1ccnc(N2CCC(c3cccc(Cl)c3)CC2)c1F` [Example 1.075], the IC50 was found to be 0.014 µM.
Then `N=C(N)NC(=O)OCc1ccnc(N2CCC(N3CCOCC3)CC2)c1F` [Example 1.025], with 0.092 µM; and `N=C(N)NC(=O)OCc1ccnc(N2CC(c3ccccn3)C2)c1F` [Example 1.002], with 0.172 µM; and `Cc1ccc(C2CCN(c3nccc(COC(=O)NC(=N)N)c3F)CC2)cc1` [Example 1.029], with 0.009 µM.
Then `N=C(N)NC(=O)OCc1ccnc(N2CC(c3ccc(OCC4CC4)cc3)C2)c1F` [Example 1.081], with 0.022 µM.
For `Cc1cnc(C2=CCN(c3nccc(COC(=O)NC(=N)N)c3F)CC2)nc1` [Example 1.030] the value was 0.023 µM; for `N=C(N)NC(=O)OCc1ccnc(N2CCN(c3ncc(F)cn3)CC2)c1F` [Example 1.045], 0.024 µM.
With `N=C(N)NC(=O)OCc1ccnc(N2CCC3(CCc4ccccc43)CC2)c1F` [Example 1.053], the IC50 is 0.083 µM.
On to `N=C(N)NC(=O)OCc1ccnc(N2CCN(C3CCCC3)C(=O)C2)c1F` [Example 1.021], for which the IC50 stood at 0.026 µM.
Then `CC(C)(C)OC(=O)N1CC(C2CCN(c3nccc(COC(=O)NC(=N)N)c3F)CC2)C1` [Example 1.102], with 0.065 µM.
For `N=C(N)NC(=O)OCc1ccnc(N2CC(c3ccccc3)C2)c1F` [Example 1.001] the value was 0.098 µM; for `N=C(N)NC(=O)OCc1ccnc(N2CC=C(c3ncccn3)CC2)c1F` [Example 1.007], 0.096 µM.
Then `N#Cc1ccc(N2CCN(c3nccc(COC(=O)NC(=N)N)c3F)CC2)c(C(F)(F)F)c1` [Example 1.105], with 0.031 µM.
Regarding `N=C(N)NC(=O)OCc1ccnc(N2CCC(c3ncc(Cl)cn3)CC2)c1F` [Example 1.079], the IC50 was determined as 0.011 µM.
Then `N#Cc1ccc(N2CCN(c3nccc(COC(=O)NC(=N)N)c3F)CC2)cn1` [Example 1.057], with 0.003 µM.
